Measured values published in patent US20030100479A1, “Gene polymorphisms and response to treatment” (priority 2001, published 2003).

Test: Clinical trial of GW320659: change in Food Craving Inventory (Total) score week 0 to week 24, by genotype
Assay type: in vivo, human
Conditions: for Change in Food Craving Inventory, mean response: 10 mg+15 mg; for Placebo adjusted mean change in Food Craving Inventory (Total) score: 15 mg dose group; for Mean change in Food Craving Inventory (Total) score: data not shown
Excerpt: Using genotyping methods as are well known in the art, genetic data were obtained from approximately 200 of more than 500 human subjects enrolled in a dose-ranging efficacy and safety study of GW320659 for weight loss (main study group; a randomized, double-blind, placebo controlled, dose-ranging clinical trial); GW320659 was used in conjunction with a mildly hypocaloric diet and brief weight management guidance. Subjects were between the ages of 18-65 years, with a Body Mass Index (BMI) of 30-40, and were not on any psychotropic medications or other anti-obesity medications. Subjects were randomized into one of five treatment groups: placebo or GW320659 at 2.5 mg/day, 5 mg/day, 10 mg/day, or 15 mg/day (oral administration). In the main study group, for the GW320659 15 mg/day dosage, average weight loss was approximately 3.7 kg (108 subjects; data not shown).
Subjects were assessed for various parameters, including absolute change in body weight from week 0 to week 24 of the study; supine heart rate, diastolic blood pressure and systolic blood pressure at multiple predetermined time-points across the study; and change in Food Craving Inventory (Total) score from week 0 to week 24.
The endpoint of Change in Food Craving Inventory (total score) was analyzed with the same methods.
The Food Craving Inventory used was a validated scale developed at Louisiana State University. It is a scale of 37 items designed to measure food cravings for specific foods. For each item the subject is asked “Over the past month, how often have you experienced a craving for the food?”. Possible responses were Never, Rarely, Sometimes, Often, and Always. These responses were converted to ordinal scores (1, 2, 3, 4, 5). The mean total score was computed for each patient. Change from baseline mean scores were analyzed. Possible range for this measure was −4 to 4; a negative number indicates a decrease in cravings.
The change in Food Craving Inventory was assessed by grouping low dose treatments together (2.5+5 mg treatments) and higher dose treatments together (10 mg+15 mg), and comparing to placebo, using a p-value threshold set at […] (the minimum level necessary to get further automatic splits). The software then determined the remaining splits for the 10 mg+15 mg group. The splits found in the 10+15 mg group were then manually duplicated for the lower dose group (2.5+5 mg) for comparison purposes. As an example, for the 10 mg+15 mg treatment doses, the mean response for subjects with genotype 1, 2 or 2,2 for the NET1 C120A genetic marker and a baseline weight greater than 86.6 kg, was −0.55 (std=0.37 n=49). FIG. 11. For all subjects not in the defined subgroup, mean response was −0.02 (std=0.60, n=25).

In the case of `C[C@@H]1CO[C@@](O)(c2cc(F)cc(F)c2)[C@H](C)N1.Cl` [GW320659, (2S,3S,5R)-2-(3,5-difluorophenyl)-3,5-dimethyl-2-morpholinol], the “Change in Food Craving Inventory, mean response” value (NET1 C120A genotype 1,2 or 2,2 and baseline weight greater than 86.6 kg, std=0.37 n=49) is reported as −0.55, the “Change in Food Craving Inventory, mean response” value (all subjects not in the defined subgroup, std=0.60, n=25) is reported as −0.02 and the “Placebo adjusted mean change in Food Craving Inventory (Total) score” value (“Placebo adjusted mean change” below) (5HTT G160A 2,2 genotype, scale range −4 to 4) is reported as 0.7. For the same compound, the “Mean change in Food Craving Inventory (Total) score” value (DRD2 C12121T 1,1 genotype, 15 mg dose) was −0.7, the “Mean change in Food Craving Inventory (Total) score” value (DRD2 C20236T 2,2 genotype, 15 mg dose) was −0.7 and the “Placebo adjusted mean change” value (NET1 C120A genotype 1,1) was 0.2. The “Placebo adjusted mean change” value (NET1 C120A genotype 1,2) was −0.4, the “Placebo adjusted mean change” value (NET1 C120A genotype 2,2) was −0.4 and the “Mean change in Food Craving Inventory (Total) score” value (NET1 T342C 2,2 genotype, 10 mg dose) was −0.7. For the same compound, the “Mean change in Food Craving Inventory (Total)” value (subgroup 2/2 NET1T342C and/or 2/2 NET1G155A and/or 2/2 NR1G6435A, 10 mg/day+15 mg/day, 26 subjects) was −0.528.
